Where a name gives a salt, the structure may show the parent alone.
Key:
[1] = biological target: T1, recombinant human 5-HT6 receptor (Homo sapiens, UniProt P50406); experiment: Radioligand binding: competition for [3H]LSD binding in membranes of HEK293 cells expressing the receptor; conditions: [3H]LSD (5 nM), HEK293 cell membranes, 60 min at 37° C., pH 7.4, duplicate determinations
T1 construct: expressed in transfected cells; cell membranes used
Experimental: The binding activity of compounds of this invention in vitro was determined as follows. Duplicate determinations of ligand affinity are made by competing for binding of [^3H]LSD in cell membranes derived from HEK293 cells stably expressing recombinant human 5-HT6 receptor.
All determinations were made in assay buffer containing 50 mM Tris-HCl, 10 mM MgSO4, 0.5 mM EDTA, 1 mM ascorbic acid, pH 7.4 at 37° C., in a 250 microliter reaction volume. Assay tubes containing [^3H] LSD (5 nM), competing ligand, and membrane were incubated in a shaking water bath for 60 min. at 37° C., filtered onto Packard GF-B plates (presoaked with 0.3% PEI) using a Packard 96 well cell harvester and washed 3 times in ice cold 50 mM Tris-HCl. Bound [^3H] LSD was determined as radioactive counts per minute using Packard TopCount.
Displacement of [3H]LSD from the binding sites was quantified by fitting concentration-binding data to a 4-parameter logistic equation:
[formula] where Hill is the Hill slope, [ligand] is the concentration of competing radioligand and IC50 is the concentration of radioligand producing half-maximal specific binding of radioligand. The specific binding window is the difference between the Bmax and the basal parameters.

T1 sequence (P50406 whole entry): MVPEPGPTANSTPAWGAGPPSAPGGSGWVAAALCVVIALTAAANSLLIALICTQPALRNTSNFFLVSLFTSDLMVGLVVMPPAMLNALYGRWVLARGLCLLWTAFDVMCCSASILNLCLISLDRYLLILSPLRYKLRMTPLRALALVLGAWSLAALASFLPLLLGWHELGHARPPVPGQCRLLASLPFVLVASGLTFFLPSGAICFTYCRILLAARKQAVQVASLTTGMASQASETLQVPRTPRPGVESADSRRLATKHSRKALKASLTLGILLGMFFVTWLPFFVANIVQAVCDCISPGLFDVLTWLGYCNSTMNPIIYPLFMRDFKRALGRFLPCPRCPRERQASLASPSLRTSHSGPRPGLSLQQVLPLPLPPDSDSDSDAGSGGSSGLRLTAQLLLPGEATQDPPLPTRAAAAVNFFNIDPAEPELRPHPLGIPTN

Row | melting point [°C] | Compound | Ki [1] [nM]
1 | 55.2 to 58.8 | COc1cc(N2CCNCC2)c2c(c1)N(Cc1cccc(Cl)c1)C(=O)CO2 (as salt: hydrochloride) | –
2 | 250.9 to 253.8 | O=C1COc2c(N3CCNCC3)cccc2N1Cc1ccccc1 (as salt: hydrochloride) | –
3 | – | O=C1COc2c(N3CCNCC3)cc(F)cc2N1Cc1ccccc1F [4-(2-fluoro-benzyl)-6-fluoro-8-piperazin-1-yl-4H-benzo[1,4]oxazin-3-one] | 0.676
4 | – | O=C1COc2c(N3CCNCC3)cccc2N1Cc1ccccc1F [4-(2-fluoro-benzyl)-8-piperazin-1-yl-4H-benzo[1,4]oxazin-3-one] | 0.912
5 | – | CC1(C)Oc2c(N3CCNCC3)cccc2N(Cc2cccc(Cl)c2)C1=O [4-(3-Chloro-benzyl)-2,2-dimethyl-8-piperazin-1-yl-4H-benzo[1,4]oxazin-3-one] | 0.759
6 | – | CC1(C)Oc2c(N3CCNCC3)cccc2N(Cc2ccccc2)C1=O [4-Benzyl-2,2-dimethyl-8-piperazin-1-yl-4H-benzo[1,4]oxazin-3-one] | 0.741
7 | – | C[C@@H]1Oc2c(N3CCNCC3)cccc2N(Cc2ccccc2)C1=O [(S)-4-Benzyl-2-methyl-8-piperazin-1-yl-4H-benzo[1,4]oxazin-3-one] | 0.759

— patent publication US7141562B2, “Substituted benzoxazinones and uses thereof” (Roche Palo Alto LLC, priority 2002, dated 2006)
